Laboratory results as given in patent US20070275025A1, “Combustible Mosquito Coil or Stick” (RECKITT BENCKISER (AUSTRALIA) PTY LIMITED, priority 2003, published 2007).
Like-named read-outs stand apart in the source and are kept apart here.

Legend:
[1] = cited from earlier work
Aedes aegypti = assay: Burning coil trial in ventilated 20 cubic metre test chamber with human subject: landing/bite inhibition, knockdown, 24 hour mortality; assay type: in vivo; settings: for % KD (15 mins) / 24 hour % mortality (15 mins exposure): 15 minutes exposure; for 24 hour % mortality (15 mins exposure): dead after 24 hours; for % bite inhibition / % landing inhibition: assessed 10 to 15 minutes exposure
Experimental: A combustible coil according to the present invention containing bifenthrin was compared with coils containing other pyrethroid active ingredients (d-allethrin, d-phenothrin, imiprothrin, permethrin, cypermethrin, bioresmethrin, deltamethrin) as indicated in Table 2. All coils contained active ingredients in an amount that rendered them similar in cost to the current leading d-allethrin coils. The range of actives covered both knockdown and residual pyrethroids. The trial was carried out against the Dengue mosquito (Aedes aegypti). The methodology employed is as follows:
The study was conducted in a ventilated test chamber (20 cubic metres) at a temperature of between 27° C. and 28.7° C. The relative humidity was ambient and ranged from 51% to 58%.
Mixed sex adult 6 to 10 day old Dengue mosquitoes (Aedes aegypti) were used in this study. There were 50 female mosquitoes released per replicate and a variable number of male mosquitoes. The mosquitoes were collected and immobilised. Male and female mosquitoes were added to a container until 50 female mosquitoes were obtained. Because only female mosquitoes bite human subjects, the number of males present in each trial was irrelevant. The mosquitoes were allowed to recover for at least one hour before being used for testing.
A positive air flow of 0.4 metres/second was generated into the chamber and air was passively vented from the chamber.
Coil treatments were placed on the floor in the test chamber, and were allowed to burn for 5 minutes before all mosquitoes were brought into the chamber and released. The coils continued to operate during the assessments and were stopped at the completion of the test period.
Starting from 10 minutes after the mosquitoes were released, an assessment was made by one human subject of the mosquito landings and bites over a 5 minute period. Whilst seated in the chamber, the subject recorded the total number of females that initiated a bite on the subject's legs, as well as the number of females that landed without initiating biting. Mosquitoes were permitted to probe the subject but not permitted to bite the subject, and were chased away prior to this occurring.
Immediately after the 5 minute assessment period, the number of knocked down mosquitoes was recorded. All the mosquitoes were collected and removed from the chamber. After 24 hours, the number of dead mosquitoes was recorded. The same human subject was used for all assessments.
The results shown in the Table 2 are the means of four trials.
Percentage landing inhibition refers to the number of mosquitoes which landed on the subject in the absence of any treatment (untreated control), minus the number of mosquitoes which landed on the subject in the presence of a coil treatment, divided by the number of mosquitoes which landed on the subject in the absence of any treatment, expressed as a percentage. Landing inhibition was assessed from 10 to 15 minutes exposure of the Aedes aegypti mosquitoes to each burning coil treatment.
Percentage bite inhibition refers to the number of mosquitoes which probed or attempted to bite the subject in the absence of any treatment (untreated control), minus the number of mosquitoes which attempted to bite the subject in the presence of a coil treatment, divided by the number of mosquitoes which attempted to bite the subject in the absence of any treatment, expressed as a percentage. It will be appreciated that, as mosquitoes must first land before attempting to bite, of necessity, percentage bite inhibition will always be lower than or equal to percentage landing inhibition. Bite inhibition was assessed from 10 to 15 minutes exposure of the Aedes aegypti mosquitoes to each burning coil treatment.
Knockdown refers to mosquitoes present on the floor of the chamber after the 15 minute trial, which were either dead, moribund, or incapacitated (i.e. unable to fly off the floor of the chamber). […]

Culex quinquefasciatus = assay: Burning coil trial with mosquitoes confined in a small cage in the chamber, subject's arm inserted: landing/bite inhibition, knockdown, 24 hour mortality; assay type: in vivo; settings: caged Culex quinquefasciatus; for % KD (15 mins) / % bite inhibition / % landing inhibition: 15 minutes exposure
Experimental: The trial detailed in Example 2 was repeated against the much more difficult to kill Culex quinquefasciatus mosquitoes. The methodology used was similar to that employed for Aedes aegypti described above, with the following variations.
One hundred female and a variable number of male Cx. quinquefasciatus were confined in a small cage which was placed in the chamber 5 minutes after the coil treatment had been ignited. For this species of mosquito, the subject's arm was inserted into the cage for determinations of landing and biting rates. The reasons for these changes in methodology compared to those used for Ae. aegypti was because Cx. quinquefasciatus are much weaker biters. This meant that satisfactory biting rates could only be achieved by confining them to a small volume.
Percentage landing inhibition, percentage bite inhibition, percentage knockdown and percentage mortality are as defined above. […] As Cx. quinquefasciatus is a more robust mosquito species the lower level of mortality after 15 minutes exposure when compared with the Ae. aegypti mosquitoes was expected.

[2] = Comparison of physical properties of pyrethroids (The Pesticide Manual); assay type: physicochemical; settings: ratio of the cited vapour pressures
Source text: The present inventors compared some physical properties of bifenthrin with those of other residual pyrethroids.

[3] = burning coil with 0.035% imiprothrin
[4] = burning coil with 0.02% bifenthrin
[5] = burning coil with 0.05% bifenthrin
[6] = burning coil with 0.10% bifenthrin
[7] = burning coil with 0.056% bioresmethrin
[8] = burning coil with 0.3% cypermethrin
[9] = burning coil with 0.07% deltamethrin
[10] = burning coil with 0.705% permethrin
[11] = burning coil with 0.25% d-allethrin
[12] = burning coil with 0.228% d-phenothrin

C#CCN1CC(=O)N(COC(=O)[C@@H]2C(C=C(C)C)C2(C)C)C1=O (mixture of isomers) [Imiprothrin, imiprothrin]
Vapour Pressure ([1]; 25° C.): 0.0018 mPa | % KD (15 mins) (Aedes aegypti; [3]): 1% | 24 hour % mortality (15 mins exposure) (Aedes aegypti; [3]): 7% | % bite inhibition (Aedes aegypti; [3]): 34% | % landing inhibition (Aedes aegypti; [3]): 34%

Cc1c(COC(=O)[C@H]2[C@@H](/C=C(\Cl)C(F)(F)F)C2(C)C)cccc1-c1ccccc1 (racemic) [Bifenthrin, 2-methylbiphenyl-3-ylmethyl (Z)-(1RS,3RS)-3-(2-chloro-3,3,3-trifluoroprop-1-enyl)-2,2-dimethylcyclopropanecarboxylate]
24 hour % mortality (15 mins exposure) (Culex quinquefasciatus; [4]): 9% | % KD (15 mins) (Culex quinquefasciatus; [4]): 1% | % bite inhibition (Culex quinquefasciatus; [4]): 96% | % landing inhibition (Culex quinquefasciatus; [4]): 86% | 24 hour % mortality (15 mins exposure) (Culex quinquefasciatus; [5]): 27% | % KD (15 mins) (Culex quinquefasciatus; [5]): 3% | % bite inhibition (Culex quinquefasciatus; [5]): 95% | % landing inhibition (Culex quinquefasciatus; [5]): 85% | 24 hour % mortality (15 mins exposure) (Culex quinquefasciatus; [6]): 39% | % KD (15 mins) (Culex quinquefasciatus; [6]): 4% | % bite inhibition (Culex quinquefasciatus; [6]): 99% | % landing inhibition (Culex quinquefasciatus; [6]): 86% | Vapour Pressure ([1]; 25° C.): 0.024 mPa | % KD (15 mins) (Aedes aegypti; [4]): 15% | 24 hour % mortality (15 mins exposure) (Aedes aegypti; [4]): 78% | % bite inhibition (Aedes aegypti; [4]): 95% | % landing inhibition (Aedes aegypti; [4]): 80% | % KD (15 mins) (Aedes aegypti; [5]): 31% | 24 hour % mortality (15 mins exposure) (Aedes aegypti; [5]): 94% | % bite inhibition (Aedes aegypti; [5]): 99% | % landing inhibition (Aedes aegypti; [5]): 87% | % KD (15 mins) (Aedes aegypti; [6]): 30% | 24 hour % mortality (15 mins exposure) (Aedes aegypti; [6]): 96% | % bite inhibition (Aedes aegypti; [6]): 100% | % landing inhibition (Aedes aegypti; [6]): 92%

CC(C)=C[C@@H]1[C@@H](C(=O)OCc2coc(Cc3ccccc3)c2)C1(C)C [Bioresmethrin, bioresmethrin]
vapour pressure relative to bifenthrin [2]: 775 times | Vapour Pressure ([1]; 25° C.): 18.6 mPa | % KD (15 mins) (Aedes aegypti; [7]): 41% | 24 hour % mortality (15 mins exposure) (Aedes aegypti; [7]): 23% | % bite inhibition (Aedes aegypti; [7]): 99% | % landing inhibition (Aedes aegypti; [7]): 96%

CC1(C)C(C=C(Cl)Cl)C1C(=O)OC(C#N)c1cccc(Oc2ccccc2)c1 (stereo not drawn) [Cypermethrin, cypermethrin]
Vapour Pressure ([1]; 20° C.): 0.0002 mPa | % KD (15 mins) (Aedes aegypti; [8]): 10% | 24 hour % mortality (15 mins exposure) (Aedes aegypti; [8]): 56% | % bite inhibition (Aedes aegypti; [8]): 73% | % landing inhibition (Aedes aegypti; [8]): 70%

CC1(C)[C@H](C(=O)O[C@H](C#N)c2cccc(Oc3ccccc3)c2)[C@@H]1C=C(Br)Br [Deltamethrin, deltamethrin]
Vapour Pressure ([1]; 25° C.): 0.0000124 mPa | % KD (15 mins) (Aedes aegypti; [9]): 0% | 24 hour % mortality (15 mins exposure) (Aedes aegypti; [9]): 12% | % bite inhibition (Aedes aegypti; [9]): 57% | % landing inhibition (Aedes aegypti; [9]): 57%

CC1(C)C(C=C(Cl)Cl)C1C(=O)OCc1cccc(Oc2ccccc2)c1 (stereo not drawn) [Permethrin, permethrin]
Vapour Pressure ([1]; 20° C.): 0.0025 mPa | % KD (15 mins) (Aedes aegypti; [10]): 35% | 24 hour % mortality (15 mins exposure) (Aedes aegypti; [10]): 55% | % bite inhibition (Aedes aegypti; [10]): 85% | % landing inhibition (Aedes aegypti; [10]): 8%

C=CCC1=C(C)C(OC(=O)C2C(C=C(C)C)C2(C)C)CC1=O (stereo not drawn) [d-Allethrin, d-allethrin]
24 hour % mortality (15 mins exposure) (Culex quinquefasciatus; [11]): 2% | % KD (15 mins) (Culex quinquefasciatus; [11]): 7% | % bite inhibition (Culex quinquefasciatus; [11]): 94% | % landing inhibition (Culex quinquefasciatus; [11]): 87% | Vapour Pressure ([1]; 21° C.): 0.16 mPa | % KD (15 mins) (Aedes aegypti; [11]): 35% | 24 hour % mortality (15 mins exposure) (Aedes aegypti; [11]): 7% | 24 hour % mortality (15 mins exposure) (Aedes aegypti; burning coil with 0.25% d-allethrin, listed as d-allethrin): no different from the untreated control | % bite inhibition (Aedes aegypti; [11]): 100% | % landing inhibition (Aedes aegypti; [11]): 98%

CC(C)=CC1C(C(=O)OCc2cccc(Oc3ccccc3)c2)C1(C)C (stereo not drawn) [d-Phenothrin, d-phenothrin]
Vapour Pressure ([1]; 21.4° C.): 0.019 mPa | % KD (15 mins) (Aedes aegypti; [12]): 39% | 24 hour % mortality (15 mins exposure) (Aedes aegypti; [12]): 24% | % bite inhibition (Aedes aegypti; [12]): 100% | % landing inhibition (Aedes aegypti; [12]): 98%
